Experiments:
[1] = biological target: T1, Human SGLT1 (Homo sapiens, UniProt P13866); experiment: Cell-based assay for inhibition of uptake of 14C-methyl-α-D-glucopyranoside (14C-AMG) in CHO-K1 cells stably expressing human SGLT1; conditions: compound at 100 μM, 14C-AMG uptake, 1 hour at 37° C.
T1 construct: pCMV6 vector containing the full length human SGLT1 gene
T1 sequence (P13866 1-664): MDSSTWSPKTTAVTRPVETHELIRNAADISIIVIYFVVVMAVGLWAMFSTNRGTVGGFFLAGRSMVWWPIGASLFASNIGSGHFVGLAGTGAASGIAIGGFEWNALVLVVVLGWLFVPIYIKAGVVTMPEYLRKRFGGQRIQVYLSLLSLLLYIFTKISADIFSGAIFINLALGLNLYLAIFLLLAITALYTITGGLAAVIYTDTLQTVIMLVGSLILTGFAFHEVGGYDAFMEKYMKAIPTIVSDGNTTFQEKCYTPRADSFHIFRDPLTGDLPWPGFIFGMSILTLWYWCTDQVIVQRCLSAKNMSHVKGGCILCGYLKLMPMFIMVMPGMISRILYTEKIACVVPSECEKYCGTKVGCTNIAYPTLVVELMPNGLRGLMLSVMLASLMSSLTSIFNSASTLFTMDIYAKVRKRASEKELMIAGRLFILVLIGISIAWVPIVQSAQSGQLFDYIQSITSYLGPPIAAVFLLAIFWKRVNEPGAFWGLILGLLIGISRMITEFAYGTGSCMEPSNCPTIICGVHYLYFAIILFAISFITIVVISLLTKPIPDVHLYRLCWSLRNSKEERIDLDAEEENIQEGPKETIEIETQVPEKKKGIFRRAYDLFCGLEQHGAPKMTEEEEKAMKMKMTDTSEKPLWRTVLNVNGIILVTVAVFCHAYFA
Description: (§1) 1. Preparation of Human SGLT1 and Human SGLT2 Expression Vectors:
• Human SGLT1 (Genbank M24847) cDNA was cloned from a pCMV6 vector containing the full length human SGLT1 gene (Origene NM 000343, Cat. #: RC221312) and Human SGLT2 (Genbank M95549) cDNA was cloned from a pCMV6 vector containing the full length human SGLT2 gene (Origene NM_003041, Cat. #: RC224822). The full cDNAs were subcloned independently into mammalian cell expression plasmid pSPI1 and sequenced to verify the integrity of the construct. 2. Preparation of CHO-K1 Cells Stably Expressing Human SGLT1 and Human SGLT2: • Transfection of CHO-K^1 cells was performed using 2.5 ug of pSPI1-SGLT1 or pSPI1-SGLT2 plasmid with about 6 ul of Lipofectamin 2000 (Invitrogen, Cat. #: 11668-019) in about 1.5×10^5 CHO-K1 cells using 12-well cell culture plate (Becton Dickinson, Cat. #: 353003) in the presence of DMEM medium (Dulbecco's Modified Eagle Medium) (Gibco, Cat. #: 11885-092) containing 10% FBS (Sigma, Cat. #: F1051-500mL). […] Sodium-dependent D-glucose transport was determined by measuring the uptake of 14C-methyl-α-D-glucopyranoside (14C-AMG) with a specific activity of 250-350mCi (9.25-13.0 GBq)/mmol (PerkinElmer, Cat. #: NEC 659250UC). […] Scintillation cocktail (1004) was added and the 14C-AMG radioisotope counted in a MicroBeta Trilux (PerkinElmer).

[2] = biological target: T2, Human SGLT2 (Homo sapiens, UniProt P31639); experiment: Cell-based assay for inhibition of uptake of 14C-methyl-α-D-glucopyranoside (14C-AMG) in CHO-K1 cells stably expressing human SGLT2; conditions: 14C-AMG uptake, 1 hour at 37° C.; for inhibition at 10 µM: compound at 10 μM; for inhibition at 100 µM: compound at 100 μM
T2 construct: pCMV6 vector containing the full length human SGLT2 gene
T2 sequence (P31639 1-672): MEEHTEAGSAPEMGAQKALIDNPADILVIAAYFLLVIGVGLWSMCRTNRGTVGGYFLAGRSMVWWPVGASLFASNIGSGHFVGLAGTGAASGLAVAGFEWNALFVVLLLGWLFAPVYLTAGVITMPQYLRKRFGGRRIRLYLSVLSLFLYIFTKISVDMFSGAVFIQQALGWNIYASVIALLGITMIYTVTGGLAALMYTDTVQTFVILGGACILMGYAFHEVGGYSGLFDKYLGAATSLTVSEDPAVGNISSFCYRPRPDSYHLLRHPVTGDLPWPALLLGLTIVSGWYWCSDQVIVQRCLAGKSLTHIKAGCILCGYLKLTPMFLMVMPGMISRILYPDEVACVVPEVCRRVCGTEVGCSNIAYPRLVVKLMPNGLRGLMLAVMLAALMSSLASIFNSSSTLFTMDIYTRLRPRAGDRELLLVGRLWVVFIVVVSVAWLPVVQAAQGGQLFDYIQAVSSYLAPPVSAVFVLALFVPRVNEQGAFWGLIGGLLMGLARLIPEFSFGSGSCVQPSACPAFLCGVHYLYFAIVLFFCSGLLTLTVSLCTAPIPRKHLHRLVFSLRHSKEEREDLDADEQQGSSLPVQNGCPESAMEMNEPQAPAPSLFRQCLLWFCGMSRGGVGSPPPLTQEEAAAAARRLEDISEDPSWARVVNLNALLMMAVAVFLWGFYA
Description: The compounds of the invention have been tested for their ability to inhibit Human Sodium Glucose Co-Transporter 2 (Human SGLT2) according to the following protocol:
as §1
• Human SGLT1 (Genbank M24847) cDNA was cloned from a pCMV6 vector containing the full length human SGLT1 gene (Origene NM 000343, Cat. #: RC221312) and Human SGLT2 (Genbank M95549) cDNA was cloned from a pCMV6 vector containing the full length human SGLT2 gene (Origene NM_003041, Cat. #: RC224822). The full cDNAs were subcloned independently into mammalian cell expression plasmid pSPI1 and sequenced to verify the integrity of the construct. 2. Preparation of CHO-K1 Cells Stably Expressing Human SGLT1 and Human SGLT2: • Transfection of CHO-K^1 cells was performed using 2.5 ug of pSPI1-SGLT1 or pSPI1-SGLT2 plasmid with about 6 ul of Lipofectamin 2000 (Invitrogen, Cat. #: 11668-019) in about 1.5×10^5 CHO-K1 cells using 12-well cell culture plate (Becton Dickinson, Cat. #: 353003) in the presence of DMEM medium (Dulbecco's Modified Eagle Medium) (Gibco, Cat. #: 11885-092) containing 10% FBS (Sigma, Cat. #: F1051-500mL). Transfectants were then selected in the presence of the antibiotic G418 (GIBCO, Cat. #: 11811-031) at final concentration of 750 ug/ml. Individual clones for both SGLT1 and SGLT2 were then characterized using the functional cell-based assay described below. 3. Cell-Based Assay for Inhibition of Uptake of methyl-α-D-glucopyranoside by Human SGLT1 and Human SGLT2: • Selected cell lines stably expressing human SGLT1 or human SGLT2 were then used for functional analysis of sodium dependent glucose uptake. Sodium-dependent D-glucose transport was determined by measuring the uptake of 14C-methyl-α-D-glucopyranoside (14C-AMG) with a specific activity of 250-350mCi (9.25-13.0 GBq)/mmol (PerkinElmer, Cat. #: NEC 659250UC). The assay buffer used to assess sodium-dependent D-glucose transport was Krebs-Ringer-Henseleit (KRH) solution containing 4.7 mM KCl, 1.2 mM MgCl2, 2.2 mM CaCl2, 10 mM Hepes pH 7.4 with Tris (Sigma). For sodium (Na^+) conditions the Assay Buffer containing 120 mM NaCl (Na^+) was used to assess sodium-dependent D-glucose transport (KRH-Na^+). For sodium free conditions, KRH solution containing 120 mM N-methyl-glucamine (NMG) instead of NaCl (Na^+) was used to assess sodium-independent D-glucose transport (KRH-NMG). All buffer chemicals were purchased from Sigma. • In brief, the cells were plated at a density of 40,000 cells per well in a 96-well plate in DMEM media and allowed to grow for 24 hours. Cells were subsequently washed twice (2×100 μL) with KRH buffer cells containing NMG. […] Scintillation cocktail (1004) was added and the 14C-AMG radioisotope counted in a MicroBeta Trilux (PerkinElmer).

inhibition at 100 µM [1] [%] | inhibition at 10 µM [2] [%] | inhibition at 100 µM [2] [%] | SMILES
46 | 30 | 79 | OC[C@H]1O[C@@H](C(F)(F)c2ccccc2)[C@H](O)[C@@H](O)[C@@H]1O [Compound 100]
48 | 40 | 56 | CCc1ccc(Cc2ccccc2C(F)(F)[C@@H]2O[C@H](CO)[C@@H](O)[C@H](O)[C@H]2O)cc1 [Compound 104]

Source: patent US8486897B2, “C-aryl glycoside compounds for the treatment of diabetes and obesity” (TFCHEM, priority 2008, dated 2013)
